Laboratory results published in US20040191842A1, “Chemopreventive and therapeutic aspects of polyphenolic compositions and assays” (Medical College of Georgia Research Institute, Inc., priority 2002, published 2004).
“Also recorded” adds a separate entry of the source.

Tests used:
[1] = daily topical 30 mg/ml EGCG for 30 days; cited from earlier work
Apaf-1 = test: Western blot of Apaf-1 in epidermal keratinocytes; format: cell-based, human; details: increasing concentrations of EGCG
Protocol: Western blot analysis. The keratinocytes and the mammary epithelial cells were placed in KGM-2 and MEGM, respectively, overnight prior to treatment. Cells were lysed, after 24-hour treatment, in RIPA buffer (1% NP-40, 1% sodium deoxycholate, 0.1% SDS, 0.15 M NaCl, 0.01 M sodium phosphate, pH 7.2, and 1% Trasylol) containing proteinase inhibitors (1 mM PMSF, 1 μg/ml each of aprotinin, leupeptin, and pepstatin). The concentration of protein in each sample was determined using the BioRad DC Protein Assay and spectrophotometry. 50 μg of protein from each sample and a BioRad molecular weight standard marker were run on a 10% SDS-PAGE, followed by transfer to nitrocellulose membranes. Nonspecific binding to the membranes was blocked with 10% nonfat milk. Primary polyclonal (rabbit) antibodies and a horseradish peroxidase-conjugated goat anti-rabbit secondary antibody were used in conjunction with the ECL Chemiluminescence Kit (Amersham Pharmacia Biotech, New Jersey) and membranes were exposed to radiographic films for detection. Western blots were digitized for comparison of the intensity for each band using the ImageTool image analysis software program (University of Texas Health Science Center, San Antonio, Tex.). The integrated density of each band was measured using identical 1480 pixel areas of each Apfa-1 or Actin band at a scale of densities from 0 to 255. […]

NS-SV-AC cells = test: Intracellular ROS levels (DFDA assay), NS-SV-AC cells; format: cell-based, human; details: EGCG 15-200 μM, 60 minutes
Protocol: (§1) Measurement of intracellular ROS levels. The ROS assay measures the accumulation of intracellular ROS levels. The non-fluorescent dye DFDA passively diffuses into cells, where the acetates are cleaved by intracellular esterases. […] Thus, values of the fluorescence in the cell cultures are constantly rising in this assay. […] The intracellular ROS levels were measured by using a fluorescence plate reader (BIO-TEK FL600, Bio-Tek Instruments, Inc., Winooski, Vt.), at an excitation wavelength of 485 nm and an emission wavelength of 530 nm.

OSC-4 cells = test: BrdU incorporation assay, OSC-4 cells; format: cell-based, human; details: for DNA synthesis (BrdU assay): 24 hours
Protocol: DNA synthesis assay. DNA synthesis was analyzed by a BrdU Cell Proliferation Assay Kit (Oncogene Research Products, Boston, Mass.). […] After the treatment, cells were labeled with BrdU for 2 hours at 37° C. and reacted with anti-BrdU antibody. Unbound antibody in each well was removed by rinsing, and horseradish peroxidase-conjugated goat anti-mouse antibody was added to each well. The color reaction was visualized according to the protocol provided by the manufacturer.
DNA synthesis assay. DNA synthesis was analyzed by a BrdU cell proliferation assay kit (Oncogene Research Products, Boston, Mass.). […] After the treatment, cells were labeled with BrdU for 2 hours at 37° C. and reacted with anti-BrdU antibody. Unbound antibody in each well was removed by rinsing, and horseradish peroxidase-conjugated goat anti-mouse IgG antibody was added to each well. The color reaction to visualize the secondary antibody was carried out according to the protocol provided by the manufacturer.

[2] = system: normal human mammary epithelial cells (HMEC); test: Morphology of mammary epithelial cells; format: cell-based; details: 50 μM EGCG
Protocol: Cell lines and cell culture. The normal human keratinocytes (NHEK CC-2507) were purchased from Cambrex (East Rutherford, N.J.) and maintained in KGM-2 medium (Cambrex). The OSC2 cell line was previously described in Example 1. The OSC2 subclones were established by retroviral transfection of the parental OSC2 cell line. These clones were maintained in 45% Dulbecco's Modified Eagle's Medium (DMEM), 45% Ham's F12 medium and 10% fetal calf serum, 100 I.U/ml penicillin, 100 μg/ml streptomycin and 5 μg/ml hydrocortisone. The normal human mammary epithelial cells (HMEC) were maintained in MEGM medium (Cambrex). All cell cultures were maintained in a 37° C. incubator with 5% CO2. Light photographs were taken with a SPOT RT digital camera system (Diagnostic Instruments, Sterling Heights, Mich.) linked to a Nikon Phase Contrast-2 microscope at an original magnification of 400×. Fluorescent photomicrographs were taken with a SPOT color digital camera system using the ZEISS Axiovert 10. Fluorescence was generated by a ZEISS AttoArc 2 source with an original magnification of 400×. Experiments were repeated three times.

NHEK [3] = test: Light microscopy of NHEK grown alone; format: cell-based, human; details: 100 μM EGCG, 24 hour
NHEK [4] = test: Intracellular ROS levels (DFDA assay), NHEK; format: cell-based, human; details: EGCG 15-200 μM, up to 120 minutes
Protocol: as §1

NHEK [5] = test: MTT assay (SDH activity), NHEK; format: cell-based, human; details: EGCG at various concentrations or 0.2 mg/ml GTP, 24 h
Excerpt: Succinate dehydrogenase activity assay (MTT assay).

O=C(O[C@@H]1Cc2c(O)cc(O)cc2O[C@@H]1c1cc(O)c(O)c(O)c1)c1cc(O)c(O)c(O)c1 [EGCG, (−)-epigallocatechin-3-gallate]
dermal toxicity [1]: failed to induce dermal toxicity | Apaf-1 levels (Apaf-1): stable basal levels of Apaf-1 | intracellular ROS levels (NS-SV-AC cells): inhibit ROS production at background levels; also recorded: reduced the ROS to background levels | DNA synthesis (BrdU assay) (OSC-4 cells; 50 μM EGCG): did not show significant changes | BrdU incorporation, of control levels (OSC-4 cells; 200 μM EGCG): approximately 75% | reduction of BrdU incorporation (OSC-4 cells; 200 μM EGCG, 24-hour period): approximately 25% | DNA synthesis (BrdU assay) (OSC-4 cells; 200 μM EGCG): significantly reduced SDH activity and DNA synthesis | morphology ([2]; 24 hours): little change in morphology | cell death ([2]; 48 hours): Significant cell death was observed | cell death (NHEK [3]): showed no cell death | intracellular ROS levels (NHEK [4]): significantly reduced immediately after the addition of EGCG; also recorded: reduce ROS to background levels | SDH activity (MTT assay) (NHEK [5]): not significantly affected
